From patent publication US12630527B2, “Broad spectrum anti-cancer compounds” (The Regents of the University of California, priority 2019, dated 2026)
pEC50: −log10 of the molar value. Entries after “also recorded” stand apart in the source; their conditions may differ.

Legend:
Pancreatic = settings: read-out: EC50 of chemo SOC; cited from earlier work
MV4-11 = experiment: High Throughput Screen for growth inhibition (CellTiter-Glo 2.0), MV4-11; type: cell-based; settings: MV4-11, Leukemia; 3 days with compound; unit not given
Protocol: (§1) The High Throughput Screen method is described below. The endpoint readout of this assay is based upon quantitation of ATP as an indicator of viable cells.
(§2) Cell lines that have been preserved in liquid nitrogen are thawed and expanded in growth media (see Table 1-3). Once cells have reached expected doubling times, screening begins. Cells are seeded in growth media in black 384-well tissue culture treated plates at 500-1500 cells per well (as noted in Analyzer). Cells are equilibrated in assay plates via centrifugation and placed at 37° C. 5% CO2 for twenty-four hours before treatment. […] Assay plates are incubated with compound for 3 days and are then analysed using CellTiter-Glo 2.0. All data points are collected via automated processes and are subject to quality control and analysed using Horizon's software.
(§3) Growth Inhibition (GI) is utilized as a measure of cell growth. The GI percentages are calculated by applying the following test and equation: If T<V_0: 100*(1−(T−V_0)/V_0) If T≥V_0: 100*(1−(T−V_0)/(V−V_0)) where T is the signal measure for a test article, V is the untreated/vehicle-treated control measure, and Vo is the untreated/vehicle control measure at time zero (also colloquially referred as T0 plates). This formula is derived from the Growth Inhibition calculation used in the National Cancer Institute's NCI-60 high throughput screen. […]

Kasumi-1 = experiment: High Throughput Screen for growth inhibition, Kasumi-1; type: cell-based; settings: Kasumi-1, Leukemia; 3 days; unit not given
Protocol: as §1, §2, §3

MOLT-4 = experiment: High Throughput Screen for growth inhibition, MOLT-4; type: cell-based; settings: MOLT-4, Leukemia; 3 days; unit not given
Protocol: as §1, §2
(§4) Growth Inhibition (GI) is utilized as a measure of cell growth. The GI percentages are calculated by applying the following test and equation: If T<V_0: 100*(1−(T−V_0)/V_0) If T≥V_0: 100*(1−(T−V_0)/(V−V_0)) where T is the signal measure for a test article, V is the untreated/vehicle-treated control measure, and Vo is the untreated/vehicle control measure at time zero (also colloquially referred as T0 plates). This formula is derived from the Growth Inhibition calculation used in the National Cancer Institute's NCI-60 high throughput screen. For the purposes of this report, all data analysis was performed in Growth Inhibition (except where noted).
(§5) A GI of 100% represents complete growth inhibition (cytostasis) and in this case cells treated with compound for 3 days would have the same endpoint reading as TO control cells. A GI of 200% represents complete death (cytotoxicity) of all cells in the culture well and in this case the T reading at 3 days will be lower than the TO control (values near or at zero).
(§6) Horizon also provides Inhibition as a measure of cell viability. Inhibition levels of 0% represent no inhibition of cell growth by treatment. Inhibition of 100% represents no doubling of cell numbers during the treatment window. Both cytostatic and cytotoxic treatments can yield an Inhibition percentage of 100%. Inhibition percentage is calculated as the following: I=1−T/U where T is the treated and U is the untreated/vehicle control.

A549 = experiment: High Throughput Screen for growth inhibition, A549; type: cell-based; settings: A549, lung adenocarcinoma; 3 days; unit not given
Protocol: as §1, §2, §3

NCI-H520 = experiment: High Throughput Screen for growth inhibition, NCI-H520; type: cell-based; settings: NCI-H520, LUSC; 3 days; unit not given
Protocol: as §1, §2, §3

LUDLU-1 = experiment: High Throughput Screen for growth inhibition, LUDLU-1; type: cell-based; settings: LUDLU-1, LUSC; 3 days; unit not given
Protocol: as §1, §2, §4, §5
(§7) Horizon also provides Inhibition as a measure of cell viability. Inhibition levels of 0% represent no inhibition of cell growth by treatment. […] Inhibition percentage is calculated as the following: I=1−T/U where T is the treated and U is the untreated/vehicle control.

AGS = experiment: High Throughput Screen for growth inhibition, AGS; type: cell-based; settings: Gastric, 3 days, unit not given
Protocol: as §1, §2, §4, §5, §6

MC-F7 = experiment: High Throughput Screen for growth inhibition, MC-F7 (MCF7); type: cell-based; settings: MC-F7, Breast (luminal); 3 days; unit not given
Protocol: as §1, §2, §3

SUM159PT = experiment: High Throughput Screen for growth inhibition, SUM159PT; type: cell-based; settings: Breast, 3 days, unit not given
Protocol: as §1, §2, §3

SKOV-3 = experiment: High Throughput Screen for growth inhibition, SKOV-3; type: cell-based; settings: SKOV-3, Ovarian; 3 days; unit not given
Protocol: as §1, §2, §3

HEC-50B = experiment: High Throughput Screen for growth inhibition, HEC-50B; type: cell-based; settings: Endometrial (uterine), 3 days, unit not given
Protocol: as §1, §2, §3

Ishikawa = experiment: High Throughput Screen for growth inhibition, Ishikawa; type: cell-based; settings: Endometrial (uterine), 3 days, unit not given
Protocol: as §1, §2, §3

HCT-116 = experiment: High Throughput Screen for growth inhibition, HCT-116; type: cell-based; settings: HCT-116, Colon; 3 days; unit not given
Protocol: as §1, §2, §3

SW480 = experiment: High Throughput Screen for growth inhibition, SW480; type: cell-based; settings: SW480, Colon; 3 days; unit not given
Protocol: as §1, §2, §3

BICR16 = experiment: High Throughput Screen for growth inhibition, BICR16; type: cell-based; settings: BICR16, Head and Neck; 3 days; unit not given
Protocol: as §1, §2, §4, §5, §7

PECAPJ15 = experiment: High Throughput Screen for growth inhibition, PECAPJ15; type: cell-based; settings: PECAPJ15, Head and Neck; 3 days; unit not given
Protocol: as §1, §2, §3

Panc 04 03 = experiment: High Throughput Screen for growth inhibition, Panc 04 03; type: cell-based; settings: Panc 04 03, Pancreatic; 3 days; unit not given
Protocol: as §1, §2, §3

FTO [1] = target: T1, FTO (Homo sapiens, UniProt Q9C0B1); experiment: Fluorescence enzymatic inhibition assay (m6A7-Broccoli / DFHBI-1T), FTO; type: biochemical; settings: fold more potent than MA (IC50=12.5)
T1 construct: SUMO (N); His10 (N); made in house; host or cells: E. coli BL21
Protocol: In order to determine their efficacy as FTO inhibitors, the compounds were screened by a fluorescence enzymatic inhibition assay developed previously by the Jaffrey lab.^44 Briefly, a nonfluorescent methylated RNA substrate termed “m6A7-Broccoli” is incubated with FTO in the presence of 2-oxoglutarate (300 μM), (NH4)2Fe(SO4)2·6H2O (300 μM), and L-ascorbate (2 mM) for 2 hours at room temperature in reaction buffer (50 mM NaHEPES, pH 6).
E. coli BL21 competent cells (New England Biolabs) were transformed with pET28-SUMO-His10-FTO plasmid (a generous gift from the Jaffrey lab) by heat shock and spread on a LB Kanamycin agar plate, then incubated overnight at 37° C. 2-3 colonies were picked and transferred to 5 mL of LB media treated with kanamycin (0.5 mg mL^−1 final concentration), then grown overnight shaking at 37° C. The overnight culture was then transferred to 2 L of LB kanamycin media and incubated at 37° C. until OD 0.8. The culture was cooled at 4° C. for 20 mins and induced with 0.5 mM isopropyl β-D-1-thiogalactopyranoside (IPTG), then grown shaken at 16° C. Cell pellets were collected by centrifugation (5,000 g for 10 min at 4° C.) and the supernatant was discarded. The pellets were resuspended in B-PER Bacterial Protein Extraction Reagent (6 mL per gram) with DNase 1 (5 U per mL, RNase-free) and incubated at 4° C. for 1 hour. The suspension was centrifuged at 10,000 g for 20 min and the supernatant was transferred to a Talon Metal Affinity Resin column that had been pre-equilibrized with binding buffer (50 mM NaH2PO4 pH 7.2, 300 mM NaCl, 20 mM imidazole, 1 mM β-mercaptoethanol in RNase-free water). […] The eluant was combined and transferred to a Slyde-A-Lyzer Dialysis Cassette (20,000 MWCO, Thermo Scientific) and dialyzed overnight at 4° C. against dialysis buffer (50 mM Tris-HCl pH 7.4, 100 mM NaCl, 5 mM B-mercaptoethanol, 5% (v/v) glycerol in RNase-free water). […] ALKBH5 was expressed and purified from pET28-SUMO-His10-ALKBH5 plasmid by the same procedure described above.
Inhibitors were added in concentrations ranging from 0.008-40 μM; all inhibitors were dissolved in DMSO and added to a final concentration of 0.2% DMSO. […] After incubation at room temperature for 2 hours, the plates were left at 4° C. overnight (16 hours) to allow DFHBI-1T to bind to A7-Broccoli RNA. […] Sigmoidal dose-response curves were fitted in GraphPad Prism 6. All assays were performed in triplicate, with additional repetitions added as necessary.

FTO [2] = target: T1, FTO; experiment: Steady-state (Michaelis-Menten) inhibition kinetics, FTO; type: biochemical; settings: velocity and double-reciprocal plots; 0-40 μM inhibitor, 0-10 μM substrate; listed as FTO-04
[3] = test system: TS576 glioblastoma stem cells; experiment: Tumorosphere (neurosphere) formation assay, TS576; type: cell-based, human; settings: 2 days
Protocol: (§8) To understand the effects of our FTO inhibitors on the self-renewal properties of GSCs, tumorospheres cultured from the patient-derived GSC line TS576 were treated with 30 μM of FTO-04, FTO-10, FTO-11, or FTO-12 (FIG. 29A-29B; cell line gifted from the Furnari lab).^45, 46 The GSCs were cultured in sphere-forming assays for 24 hours, then treated with either inhibitors or DMSO control for 2 days. The size of the tumorospheres was calculated using ImageJ.
(§9) Early passaged GSCs were used to understand the efficacy of ALK-04 on the self-renewal capacity of GSCs by tumorsphere-formation assay as described earlier^10, 11. In brief, GSCs were seeded at 4×10^4 cells in 24 well plate and cultured for 3 days followed by treatment with ALK-04 inhibitors at 20 μM daily for 3 days. After 3 days of treatment the images of the tumorospheres were imaged with phase contrast microscope and size was measured with Image J, to understand the effects of drugs on the self-renewal of GSCs on sphere formation. This process was also repeated for healthy neural stem cells (hNSCs) treated daily with 20 μM ALK-04 for three days to assess the therapeutic ratio.

GBM-GSC-23 = experiment: Tumorosphere (neurosphere) formation assay, GBM-GSC-23; type: cell-based, human; settings: 20 μM, 2 days, listed as FTO-04
GBM-6 = experiment: Tumorosphere (neurosphere) formation assay, GBM-6; type: cell-based, human; settings: GBM-6, 20 μM, 2 days; listed as FTO-04
[4] = test system: human neural stem cells (hNSC); experiment: Neurosphere formation assay, healthy neural stem cells; type: cell-based; settings: healthy neural stem cells (hNSCs), 20 μM; listed as FTO-04
Protocol: as §8, §9

[5] = test system: m6A mRNA levels in TS576 cells; experiment: m6A dot blot assay on poly(A)+ mRNA; type: cell-based, human; settings: vs DMSO control, does not distinguish m6A and m6Am
Protocol: Next, we sought to determine if FTO-04 was able to alter m6A levels in purified mRNA from GSCs by m6A dot blot assay. TS576 cells were treated with 2, 10, and 50 ng shControl or shFTO to establish the relative change in m6A mRNA levels due to FTO knockdown. […] TS576 cells were then treated with 2, 10, and 50 ng of either DMSO or FTO-04 (FIG. 59B).
Polyadenylated mRNA were isolated from TS576 cells treated with either DMSO, FTO-04 (30 μM), and control (shControl) or FTO lentivirus (shFTO) knockdown samples by using Magnetic mRNA Isolation Kit (New England Biolabs, S1550S). Isolated mRNA was quantified, serially diluted and denatured at 95° C. for 3 min, then chilled on ice to prevent reformation of secondary structure of mRNA. Denatured mRNA samples were spotted on an Amersham Hybond-N^+ membrane (GE Healthcare, RPN3050B) and cross-linked to the membrane with UV radiation. After crosslinking the membrane was washed with phosphate buffer saline with 0.1% tween-20 (PBST) and blocked in 5% of non-fat milk in PBST buffer, and then incubated with anti-m^6A antibody (1:1000; abcam) overnight at 4° C. The membrane was then washed as before and incubated in HRP-conjugated secondary antibodies for 1 h at room temperature. The membrane was then developed with Thermo ECL SuperSignal West Femto Maximum Sensitivity Substrate (Thermo Fisher Scientific).

T1 sequence (Q9C0B1 whole entry): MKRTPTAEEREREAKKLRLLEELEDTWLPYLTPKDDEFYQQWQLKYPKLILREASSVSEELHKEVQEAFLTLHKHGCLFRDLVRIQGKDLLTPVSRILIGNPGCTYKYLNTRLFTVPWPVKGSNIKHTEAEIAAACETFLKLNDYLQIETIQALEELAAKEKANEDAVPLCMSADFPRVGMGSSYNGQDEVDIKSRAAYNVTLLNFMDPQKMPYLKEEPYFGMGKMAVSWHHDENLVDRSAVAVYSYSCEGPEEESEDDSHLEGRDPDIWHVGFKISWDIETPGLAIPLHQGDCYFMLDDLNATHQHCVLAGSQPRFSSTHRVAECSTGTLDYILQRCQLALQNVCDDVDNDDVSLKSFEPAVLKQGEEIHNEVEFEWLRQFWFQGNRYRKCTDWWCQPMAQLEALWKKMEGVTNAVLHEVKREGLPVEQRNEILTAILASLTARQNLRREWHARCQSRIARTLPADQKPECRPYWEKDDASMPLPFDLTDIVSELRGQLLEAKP

Nc1ccn([C@@H]2O[C@H](CO)[C@@H](O)C2(F)F)c(=O)n1 [gemcitabine]
pEC50 (Pancreatic): > 6.00

CN(Cc1ccc(C(F)(F)F)cc1)c1ccc(CNC2CC2)cn1 [TR-YTH-10]
Growth Inhibition (GI) Values (MV4-11): 23.158 | Growth Inhibition (GI) Values (Kasumi-1): 10.784 | Growth Inhibition (GI) Values (MOLT-4): 14.304 | Growth Inhibition (GI) Values (A549): 24.437 | Growth Inhibition (GI) Values (NCI-H520): 24.266 | Growth Inhibition (GI) Values (LUDLU-1): 20.311 | Growth Inhibition (GI) Values (AGS): 21.842 | Growth Inhibition (GI) Values (MC-F7): 24.642 | Growth Inhibition (GI) Values (SUM159PT): 56.597 | Growth Inhibition (GI) Values (SKOV-3): 25.341 | Growth Inhibition (GI) Values (HEC-50B): 37.217 | Growth Inhibition (GI) Values (Ishikawa): 22.531 | Growth Inhibition (GI) Values (HCT-116): 21.453 | Growth Inhibition (GI) Values (SW480): 25.275 | Growth Inhibition (GI) Values (BICR16): 12.966 | Growth Inhibition (GI) Values (PECAPJ15): 44.646 | Growth Inhibition (GI) Values (Panc 04 03): 28.024

COc1ncc(-c2ccc3nc(N)sc3c2)cn1 [FTO-4, 6-(2-methoxypyrimidin-5-yl)benzo[d]thiazol-2-amine]
potency against FTO relative to MA (FTO [1]): approximately 4 | mechanism of inhibition of FTO (FTO [2]): competitive inhibitor; also recorded: competitive mechanism of inhibition | size of tumorospheres ([3]; TS576, 20 μM, listed as FTO-04): inhibits GSC neurospheres formation; also recorded: significantly decrease the size of tumorospheres | size of tumorospheres ([3]; TS576, 30 μM, vs vehicle control): significant reduction in size of the tumorospheres | size of tumorospheres (GBM-GSC-23): inhibits GSC neurospheres formation; also recorded: significantly decrease the size of tumorospheres | size of tumorospheres (GBM-6): inhibits GSC neurospheres formation; also recorded: significantly decrease the size of tumorospheres | neurosphere size [4]: without impairing hNSC neurosphere growth; also recorded: no alteration in neurosphere size | m6A mRNA levels [5]: increase m6A mRNA levels significantly compared to DMSO control
